Data as given in patent US12077503B2, “Substituted cyclic amides and their use as herbicides” (FMC CORPORATION, priority 2015, dated 2024).

Key:
Format in all cases: in vivo
[1] = system: rice (Oryra sativa); assay: Test B flooded paddy test; conditions: Oryza sativa, 360 h, Flood, 250 g ai/ha; visually evaluated after 13 to 15 d; read-out: Plant response rating, Rice (0 to 100 scale where 0 is no effect and 100 is complete control)
In short: (§1)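 Response scored visually against untreated controls, 0 = no effect and 100 = complete control, 13–15 d after treatment in the greenhouse. Compounds added to paddy water held 3 cm above soil surface. Treatment given at 2-leaf stage.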

[2] = system: ducksalad (Heteranthera limosa); assay: Test B flooded paddy test; conditions: Heteranthera limosa, 360 h, Flood, 250 g ai/ha; visually evaluated after 13 to 15 d; read-out: Plant response rating, Ducksalad (0 to 100 scale where 0 is no effect and 100 is complete control)
In short: as §1

[3] = system: sedge, umbrella (small-flower umbrella sedge, Cyperus difformis); assay: Test B flooded paddy test; conditions: Cyperus difformis, 360 h, Flood, 250 g ai/ha; visually evaluated after 13 to 15 d; read-out: Plant response rating, Sedge, Umbrella (0 to 100 scale where 0 is no effect and 100 is complete control)
In short: as §1

[4] = system: barnyardgrass (Echinochloa crus-galli); assay: Test B flooded paddy test; conditions: Echinochloa crus-galli, 360 h, Flood, 250 g ai/ha; visually evaluated after 13 to 15 d; read-out: Plant response rating, Barnyardgrass (0 to 100 scale where 0 is no effect and 100 is complete control)
In short: as §1

[5] = system: wheat (Triticum aestivum); assay: Test A postemergence; conditions: Triticum aestivum, post-emergence, 240 h, Postemergence, read-out: Wheat plant response rating (0 to 100 scale); for plant injury at 125 g/ha: 125 g ai/ha, visual rating about 10 d after treatment; for plant injury at 31 g/ha: 31 g ai/ha, 0 is no effect, 100 is complete control
In short: (§2)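 Visual injury, scored on a 0–100 scale relative to untreated controls, was recorded about 10 d after application. Treatments were a preemergence soil spray over planted seeds or a postemergence spray on plants at the one- to two-leaf stage, 2 to 10 cm tall, all in loam soil–sand blend in the greenhouse.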

[6] = system: ryegrass, Italian (Italian ryegrass, Lolium multiflorum); assay: Test A postemergence; conditions: Lolium multiflorum, post-emergence, 240 h, Postemergence, read-out: Ryegrass, Italian plant response rating (0 to 100 scale); for pest or weed control at 125 g/ha: 125 g ai/ha, visual rating about 10 d after treatment; for pest or weed control at 31 g/ha: 31 g ai/ha, 0 is no effect, 100 is complete control
In short: as §2

[7] = system: pigweed (Amaranthus retroflexus); assay: Test A postemergence; conditions: Amaranthus retroflexus, post-emergence, 240 h, Postemergence, read-out: Pigweed plant response rating (0 to 100 scale); for pest or weed control at 125 g/ha: 125 g ai/ha, visual rating about 10 d after treatment; for pest or weed control at 31 g/ha: 31 g ai/ha, 0 is no effect, 100 is complete control
In short: as §2

[8] = system: giant foxtail (Setaria faberii); assay: Test A postemergence; conditions: Setaria faberi, post-emergence, 240 h, Postemergence, read-out: Foxtail, Giant plant response rating (0 to 100 scale); for pest or weed control at 125 g/ha: 125 g ai/ha, visual rating about 10 d after treatment; for pest or weed control at 31 g/ha: 31 g ai/ha, 0 is no effect, 100 is complete control
In short: as §2

[9] = system: ragweed (common ragweed, Ambrosia elatior); assay: Test A postemergence; conditions: Ambrosia artemisiifolia, post-emergence, 240 h, Postemergence, read-out: Ragweed plant response rating (0 to 100 scale); for pest or weed control at 125 g/ha: 125 g ai/ha, visual rating about 10 d after treatment; for pest or weed control at 31 g/ha: 31 g ai/ha, 0 is no effect, 100 is complete control
In short: as §2

[10] = system: blackgrass (Alopecurus myosuroides); assay: Test A postemergence; conditions: Alopecurus myosuroides, post-emergence, 240 h, Postemergence, read-out: Blackgrass plant response rating (0 to 100 scale); for pest or weed control at 125 g/ha: 125 g ai/ha, visual rating about 10 d after treatment; for pest or weed control at 31 g/ha: 31 g ai/ha, 0 is no effect, 100 is complete control
In short: as §2

[11] = system: corn (Zea mays); assay: Test A postemergence; conditions: Zea mays, post-emergence, 240 h, Postemergence, read-out: Corn plant response rating (0 to 100 scale); for plant injury at 125 g/ha: 125 g ai/ha, visual rating about 10 d after treatment; for plant injury at 31 g/ha: 31 g ai/ha, 0 is no effect, 100 is complete control
In short: as §2

[12] = system: Kochia (Kochia scoparia); assay: Test A postemergence; conditions: Bassia scoparia, post-emergence, 240 h, Postemergence, read-out: Kochia plant response rating (0 to 100 scale); for pest or weed control at 125 g/ha: 125 g ai/ha, visual rating about 10 d after treatment; for pest or weed control at 31 g/ha: 31 g ai/ha, 0 is no effect, 100 is complete control
In short: as §2

[13] = system: barnyardgrass (Echinochloa crus-galli); assay: Test A postemergence; conditions: Echinochloa crus-galli, post-emergence, 240 h, Postemergence; for pest or weed control at 125 g/ha: 125 g ai/ha, visual rating about 10 d after treatment, read-out: Barnyardgrass plant response rating (0 to 100 scale, 0 no effect, 100 complete control); for pest or weed control at 31 g/ha: 31 g ai/ha, 0 is no effect, 100 is complete control, read-out: Barnyardgrass plant response rating (0 to 100 scale)
In short: as §2

[14] = system: Galium (catchweed bedstraw, Galium aparine); assay: Test A postemergence; conditions: Galium, post-emergence, 240 h, Postemergence, read-out: Galium plant response rating (0 to 100 scale); for pest or weed control at 125 g/ha: 125 g ai/ha, visual rating about 10 d after treatment; for pest or weed control at 31 g/ha: 31 g ai/ha, 0 is no effect, 100 is complete control
In short: as §2

[15] = system: ryegrass, Italian (Italian ryegrass, Lolium multiflorum); assay: Test A preemergence; conditions: Lolium multiflorum, pre-emergence, 240 h, Preemergence; for pest or weed control at 31 g/ha: 31 g ai/ha, 0 to 100 scale where 0 is no effect and 100 is complete control, read-out: Ryegrass, Italian plant response rating; for pest or weed control at 125 g/ha: 125 g ai/ha, 0 to 100 scale (0 no effect, 100 complete control), read-out: Plant response rating, Ryegrass, Italian
In short: as §2

[16] = system: pigweed (Amaranthus retroflexus); assay: Test A preemergence; conditions: Amaranthus retroflexus, pre-emergence, 240 h, Preemergence; for pest or weed control at 31 g/ha: 31 g ai/ha, 0 to 100 scale where 0 is no effect and 100 is complete control, read-out: Pigweed plant response rating; for pest or weed control at 125 g/ha: 125 g ai/ha, 0 to 100 scale (0 no effect, 100 complete control), read-out: Plant response rating, Pigweed
[17] = system: giant foxtail (Setaria faberii); assay: Test A preemergence; conditions: Setaria faberi, pre-emergence, 240 h, Preemergence; for pest or weed control at 31 g/ha: 31 g ai/ha, 0 to 100 scale where 0 is no effect and 100 is complete control, read-out: Foxtail, Giant plant response rating; for pest or weed control at 125 g/ha: 125 g ai/ha, 0 to 100 scale (0 no effect, 100 complete control), read-out: Plant response rating, Foxtail, Giant
In short: as §2

[18] = system: ragweed (common ragweed, Ambrosia elatior); assay: Test A preemergence; conditions: Ambrosia artemisiifolia, pre-emergence, 240 h, Preemergence; for pest or weed control at 31 g/ha: 31 g ai/ha, 0 to 100 scale where 0 is no effect and 100 is complete control, read-out: Ragweed plant response rating; for pest or weed control at 125 g/ha: 125 g ai/ha, 0 to 100 scale (0 no effect, 100 complete control), read-out: Plant response rating, Ragweed
In short: as §2

[19] = system: Kochia (Kochia scoparia); assay: Test A preemergence; conditions: Bassia scoparia, pre-emergence, 240 h, Preemergence; for pest or weed control at 31 g/ha: 31 g ai/ha, 0 to 100 scale where 0 is no effect and 100 is complete control, read-out: Kochia plant response rating; for pest or weed control at 125 g/ha: 125 g ai/ha, 0 to 100 scale (0 no effect, 100 complete control), read-out: Plant response rating, Kochia
In short: as §2

[20] = system: barnyardgrass (Echinochloa crus-galli); assay: Test A preemergence; conditions: Echinochloa crus-galli, pre-emergence, 240 h, Preemergence; for pest or weed control at 31 g/ha: 31 g ai/ha, 0 to 100 scale where 0 is no effect and 100 is complete control, read-out: Barnyardgrass plant response rating; for pest or weed control at 125 g/ha: 125 g ai/ha, 0 to 100 scale (0 no effect, 100 complete control), read-out: Plant response rating, Barnyardgrass
In short: as §2

## Cc1cccc([C@H]2CN(C)C(=O)[C@@H]2C(=O)Nc2cnccc2C)c1 [Compound 1344]
[1]
  pest or weed control at 250 g/ha: 0%
[2]
  pest or weed control at 250 g/ha: 0%
[3]
  pest or weed control at 250 g/ha: 0%
[4]
  pest or weed control at 250 g/ha: 0%
[5]
  plant injury at 125 g/ha: 0%
  plant injury at 31 g/ha: 0%
[6]
  pest or weed control at 125 g/ha: 0%
  pest or weed control at 31 g/ha: 0%
[7]
  pest or weed control at 125 g/ha: 0%
  pest or weed control at 31 g/ha: 0%
[8]
  pest or weed control at 125 g/ha: 0%
  pest or weed control at 31 g/ha: 0%
[9]
  pest or weed control at 125 g/ha: 0%
  pest or weed control at 31 g/ha: 0%
[10]
  pest or weed control at 125 g/ha: 0%
  pest or weed control at 31 g/ha: 0%
[11]
  plant injury at 125 g/ha: 0%
  plant injury at 31 g/ha: 0%
[12]
  pest or weed control at 125 g/ha: 0%
  pest or weed control at 31 g/ha: 0%
[13]
  pest or weed control at 125 g/ha: 0%
  pest or weed control at 31 g/ha: 0%
[14]
  pest or weed control at 125 g/ha: 0%
  pest or weed control at 31 g/ha: 0%
[15]
  pest or weed control at 31 g/ha: 0%
  pest or weed control at 125 g/ha: 0%
[16]
  pest or weed control at 31 g/ha: 0%
  pest or weed control at 125 g/ha: 0%
[17]
  pest or weed control at 31 g/ha: 0%
  pest or weed control at 125 g/ha: 0%
[18]
  pest or weed control at 31 g/ha: 0%
  pest or weed control at 125 g/ha: 0%
[19]
  pest or weed control at 31 g/ha: 0%
  pest or weed control at 125 g/ha: 0%
[20]
  pest or weed control at 31 g/ha: 0%
  pest or weed control at 125 g/ha: 0%

## CN1C[C@H](c2cccc(C(F)(F)F)c2)[C@@H](C(=O)Nc2ccc(F)nc2F)C1=O [Compound 1348]
[1]
  pest or weed control at 250 g/ha: 0%
[2]
  pest or weed control at 250 g/ha: 98%
[3]
  pest or weed control at 250 g/ha: 0%
[4]
  pest or weed control at 250 g/ha: 90%
[5]
  plant injury at 125 g/ha: 60%
  plant injury at 31 g/ha: 40%
[6]
  pest or weed control at 125 g/ha: 30%
  pest or weed control at 31 g/ha: 20%
[7]
  pest or weed control at 125 g/ha: 0%
  pest or weed control at 31 g/ha: 0%
[8]
  pest or weed control at 125 g/ha: 90%
  pest or weed control at 31 g/ha: 90%
[9]
  pest or weed control at 125 g/ha: 20%
  pest or weed control at 31 g/ha: 0%
[10]
  pest or weed control at 125 g/ha: 50%
  pest or weed control at 31 g/ha: 50%
[11]
  plant injury at 125 g/ha: 80%
  plant injury at 31 g/ha: 50%
[12]
  pest or weed control at 125 g/ha: 50%
  pest or weed control at 31 g/ha: 0%
[13]
  pest or weed control at 125 g/ha: 90%
  pest or weed control at 31 g/ha: 90%
[14]
  pest or weed control at 125 g/ha: 70%
  pest or weed control at 31 g/ha: 50%
[15]
  pest or weed control at 31 g/ha: 20%
  pest or weed control at 125 g/ha: 60%
[16]
  pest or weed control at 31 g/ha: 0%
  pest or weed control at 125 g/ha: 100%
[17]
  pest or weed control at 31 g/ha: 100%
  pest or weed control at 125 g/ha: 100%
[18]
  pest or weed control at 31 g/ha: 80%
  pest or weed control at 125 g/ha: 20%
[19]
  pest or weed control at 31 g/ha: 0%
  pest or weed control at 125 g/ha: 80%
[20]
  pest or weed control at 31 g/ha: 90%
  pest or weed control at 125 g/ha: 100%
